# Measurements from US20240182456A1, “2-((4-((S)-2-(4-CHLORO-2-FLUOROPHENYL)-2-METHYLBENZO[D][1,3]DIOXOL-4-YL)PIPERIDIN-1-YL)METHYL)-1-(((S)-OXETAN-2-YL)METHYL)-1H-IMIDAZOLE DERIVATIVES AS ACTIVATORS OF THE GLP1 RECEPTOR FOR THE TREATMENT OF OBESITY” (Novartis AG, priority 2021, published 2024).
# pEC50: −log10 of the molar value.
# Key:
# [1] = molecular target: human GLP1R (hGLP1R) (Homo sapiens, UniProt P43220); test: Human GLP1R cAMP agonist assay (GloSensor); type: cell-based; conditions: HEK293-SNAP-hGLP1R-GloSensor cells; for Emax: cAMP, normalized to GLP1(7-36) maximum response, read-out: Emax mean; for pEC50: intracellular cAMP, mean n=3 where SEM is given
# Description: (§1) Compounds 1 to 31 were tested in the following cellular assays that measure the intracellular cAMP concentration, beta-arrestin recruitment and receptor internalization. The cAMP is generated by the activation of GLP1R. The cAMP data obtained is shown in Table 1 (where S.E.M. is included, mean n=3 independent experiments+/−S.E.M). Beta-arrestin is recruited upon activation of GLP1R and the data obtained are shown in Table 2 (mean n=2 independent experiments, +/−S.D). The extent to which the GLP1R is internalized into the cell and away from the plasma membrane following activation is also shown in Table 2 (mean n=2 independent experiments, +/−S.D). EC50 for each assay is defined as the concentration of the compound that leads to half of the maximum response (after baseline correction). Emax is defined as the maximum response observed for the test compound, normalized to the maximum response observed for the endogenous ligand (GLP1(7-36)) to GLP1R.
# Human GLP1R cAMP Agonist Assay
# The agonist activity of compounds was determined using the GloSensor™ cAMP Assay (Promega Corp.), which measures changes in the intracellular concentration of cAMP after ligand activation of GPCRs. The assay uses a biosensor encoded by pGloSensor™-22F cAMP plasmid (Promega, cat #E2301) with cAMP binding domains fused to a mutant form of Photinus pyralis luciferase. Binding to cAMP causes conformational changes that promote large increases in light output, which can be measured by a luminescence detector. HEK293-SNAP-hGLP1R-GloSensor cells stably overexpressing the human GLP1 receptor (hGLP1R) and pGloSensor™-22F were seeded in white 384-well poly-D-Lysine coated plates (Greiner Bio One, cat #781945) in CO2-independent media (Gibco cat #18045-088 with 1.0% FBS, 2 mM L-glutamine, penicillin and streptomycin) and incubated overnight at 37° C., 5% CO2 with humidity. The assay was started the following morning by adding an equal volume of CO2-independent media containing 4% v/v dilution of the GloSensor substrate (Promega, cat #E1291) to all wells. The cell plate was incubated at rt for 2 h in the dark. The Biomek 7 (Beckman Coulter) instrument was used for the liquid handling steps. To generate duplicate dose response curves, 3-fold serially diluted compounds were added in to the cell assay plate to a final volume of 60 μL with final concentrations ranging from 30 μM through 0.06 μM in CO2-independent media containing 0.1% BSA, 0.5 mM IBMX and 0.4% DMSO. In the same plate and assay buffer as the tested compounds, were EC100 control wells containing GLP1 (7-36) peptide (Bachem, cat #H-6795) at a final concentration of 2 nM and also EC0 control wells containing no peptide. This plate was incubated at rt in the dark for 12 min after adding the compounds to the cells. Luminescence was then measured with an Envision 2104 Multilabel reader with “TRF Light Unit, 337 nm” (PerkinElmer) using the Ultra-Sensitive protocol setting “384-well US luminescence detector” with the 384-well luminescence aperture, 0.1 seconds per well. cAMP activity was calculated as percent of the GLP1 (7-36) EC100 control wells: [(sample signal−mean EC0 signal)/(mean EC100 of GLP1 (7-36) signal−mean EC0 signal)}*100. Curve fitting for EC50 determinations was performed in the Helios module of the software package DAVID. The 4-parameter logistic model, Hill slope was used: y=Ainf+(A0−Ainf)/(1+(x/AC50)^Hill Slope) where y is the functional response; x is the compound concentration; A0 is the minimum value (at 0 dose); Ainf is the maximum value (at infinite dose); AC50 corresponds to the point of inflection (i.e. the point on the sigmoid shaped curve halfway between A0 and Ainf). The EC50 value was represented by the AC50 value calculated from Helios in μM. Emax is the maximal activity detected within the concentration range, derived from the fitted curve. […]
# [2] = molecular target: human GLP1R (Homo sapiens, UniProt P43220); test: Human GLP1R DERET internalization assay; type: cell-based; conditions: HEK293-SNAP-hGLP1R-GloSensor cells; for pEC50: mean n=2; for Emax: relative to GLP1(7-36)
# Description: as §1
# The extent to which agonists internalize the human GLP1R was determined based on an optimized version of a RealTime FRET-based ‘DERET’ (Dissociation Enhanced Resonance Energy Transfer) assay. The technology relies on labeling of the SNAP-tagged GPCR with a SNAP-Lumi-Terbium (donor fluorophore, Cisbio, cat #SSNPTBD). The compounds are incubated with the cells over-expressing the GPCR of interest in the presence of an excess of fluorescein (acceptor fluorophore). When the GPCR is on the cell surface, the donor signal is quenched by the acceptor and the donor/acceptor ratio is low. As the GPCR internalizes, the donor signal is no longer quenched, and the acceptor is no longer excited so the donor/acceptor ratio increases.
# HEK293-SNAP-hGLP1R-GloSensor cells (stably overexpressing SNAP-tagged hGLP1R) were seeded overnight in white 384-well poly-D-Lysine coated plates (Greiner Bio One, cat #781945) in regular DMEM growth medium (Gibco, cat #11965-092, 10% heat-inactivated FBS, 10 mM HEPES, 1× penicillin/streptomycin, 0.5 mg/mL geneticin (Gibco, cat #10131-035) and 0.25 mg/mL hygromycin B (Invitrogen, cat #10687010). On the assay day, cell medium was removed and 100 nM SNAP-Lumi-Tb reagent was added in Opti-MEM solution. The cells were incubated at 37° C. for 1 h. Cells were washed using a plate washer in assay buffer [1×HBSS (10× Gibco, cat #14065-056), 20 mM Hepes (Gibco, cat #15630-080), 1 mM CaCl2 (Fluka, cat #21114-1L), 1 mM MgCl2 (Ambion, cat #AM9530G) pH7.4], and 20 μL buffer with 0.1% BSA was added to each well. After leaving cells to equilibrate for ˜15 min at 37° C., 10 μL of Fluorescein (sodium salt, Sigma, cat #F6377, diluted in buffer) was added at 25 μM final concentration. To generate triplicate dose response curves, compounds were serially diluted 3-fold in assay buffer, then added to the cell assay plate to a final volume of 40 μL and final top concentrations starting at 30 μM. In the same plate and assay buffer as the tested compounds, a GLP1 (7-36) peptide (Bachem, cat #H-6795) control curve was included at a final top concentration of 1 μM in order to establish EC100. EC0 wells with buffer only were also included. The plate FRET fluorescence was measured immediately using a Perkin Elmer Envision with LANCE/DELFIA D400 single mirror, excitation filter X320, and emission filters M615_203 (donor emission) and M515 (acceptor emission), and then measured every 30 min. […] Plates were kept at 37° C. between reads. Data was expressed as the ratio of donor/acceptor emissions using Microsoft Excel and plotted in GraphPad Prism. In order to determine EC50 and Emax for internalization, data was calculated and expressed as percent of the GLP1 (7-36) EC100 control wells: [(sample signal−mean EC0 signal)/(mean EC100 of GLP1 (7-36) signal−mean EC0 signal)]*100 using Microsoft Excel. Curve fitting for EC50 determinations was performed using GraphPad Prism. The 4-parameter logistic model, Hill slope was used:
# Y=Bottom+(Top−Bottom)/(1+10^((Log EC50−X)*Hill Slope)), […]
# Chain of human GLP1R (hGLP1R) (P43220 24-463): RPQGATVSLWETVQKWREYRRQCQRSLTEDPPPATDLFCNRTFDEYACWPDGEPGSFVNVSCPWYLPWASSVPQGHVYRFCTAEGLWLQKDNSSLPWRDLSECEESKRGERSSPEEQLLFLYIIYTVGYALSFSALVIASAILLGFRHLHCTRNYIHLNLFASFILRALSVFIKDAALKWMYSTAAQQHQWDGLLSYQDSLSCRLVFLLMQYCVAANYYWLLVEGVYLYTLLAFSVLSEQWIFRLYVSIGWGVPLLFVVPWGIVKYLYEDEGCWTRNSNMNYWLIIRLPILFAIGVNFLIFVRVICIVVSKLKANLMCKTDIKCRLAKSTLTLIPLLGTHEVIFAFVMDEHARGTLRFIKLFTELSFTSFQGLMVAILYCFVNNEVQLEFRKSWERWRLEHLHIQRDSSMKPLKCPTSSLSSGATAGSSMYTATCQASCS
# Chain of human GLP1R (P43220 24-463): as above
SMILES,Emax [1] [%],pEC50 [1],pEC50 [2],Emax [2] [%]
"Cc1nc(CN2CCC(c3cccc4c3O[C@@](C)(c3ccc(Cl)cc3F)O4)CC2)n(C[C@@H]2CCO2)c1/C=C(\F)C(=O)O [Compound C-19b, (Z)-3-(2-((4-((S)-2-(4-chloro-2-fluorophenyl)-2-methylbenzo[d][1,3]dioxol-4-yl)piperidin-1-yl)methyl)-4-methyl-1-(((S)-oxetan-2-yl)methyl)-1H-imidazol-5-yl)-2-fluoroacrylic acid]",111,9.01,< 4.52,27
"Cc1nc(CN2CCC(c3cccc4c3O[C@@](C)(c3ccc(Cl)cc3F)O4)CC2)n(C[C@@H]2CCO2)c1C(=O)NCC(=O)O [Compound C-16, (2-((4-((S)-2-(4-chloro-2-fluorophenyl)-2-methylbenzo[d][1,3]dioxol-4-yl)piperidin-1-yl)methyl)-4-methyl-1-(((S)-oxetan-2-yl)methyl)-1H-imidazole-5-carbonyl)glycine]",105,8.07,< 4.52,8
"Cc1c(-c2cncc(C(=O)O)c2)nc(CN2CCC(c3cccc4c3O[C@@](C)(c3ccc(Cl)cc3F)O4)CC2)n1C[C@@H]1CCO1 [Compound C-12, 5-(2-((4-((S)-2-(4-chloro-2-fluorophenyl)-2-methylbenzo[d][1,3]dioxol-4-yl)piperidin-1-yl)methyl)-5-methyl-1-(((S)-oxetan-2-yl)methyl)-1H-imidazol-4-yl)nicotinic acid]",113,9.22,< 4.52,10
"Cc1c(/C=C/C(=O)O)nc(CN2CCC(c3cccc4c3O[C@@](C)(c3ccc(Cl)cc3F)O4)CC2)n1C[C@@H]1CCO1 [Compound C-6, (E)-3-(2-((4-((S)-2-(4-chloro-2-fluorophenyl)-2-methylbenzo[d][1,3]dioxol-4-yl)piperidin-1-yl)methyl)-5-methyl-1-(((S)-oxetan-2-yl)methyl)-1H-imidazol-4-yl)acrylic acid]",105,8.17,< 4.52,5
"Cc1nc(CN2CCC(c3cccc4c3O[C@@](C)(c3ccc(Cl)cc3F)O4)CC2)n(C[C@@H]2CCO2)c1CCC(=O)O [Compound C-14, 3-(2-((4-((S)-2-(4-chloro-2-fluorophenyl)-2-methylbenzo[d][1,3]dioxol-4-yl)piperidin-1-yl)methyl)-4-methyl-1-(((S)-oxetan-2-yl)methyl)-1H-imidazol-5-yl)propanoic acid]",107,9.60,5.47,28
"C[C@]1(c2ccc(Cl)cc2F)Oc2cccc(C3CCN(Cc4nc(C(F)(F)F)c(/C=C/C(=O)O)n4C[C@@H]4CCO4)CC3)c2O1 [Compound C-8, (E)-3-(2-((4-((S)-2-(4-chloro-2-fluorophenyl)-2-methylbenzo[d][1,3]dioxol-4-yl)piperidin-1-yl)methyl)-1-(((S)-oxetan-2-yl)methyl)-4-(trifluoromethyl)-1H-imidazol-5-yl)acrylic acid]",108,10.22,< 4.52,9.5
